Common to all, as to test: NCI tumour cell line growth inhibition, 48 h
Test [1] concerns MALME-3M melanoma.
Test [2] relates to SNB-75 CNS.
Test [3] concerns NCI/ADR-RES ovarian.
Test [4] has as its system SR leukemia.
For test [5], the system named is BT-549 breast.
For test [6], the system named is MDA-MB-231 breast.
Test [7] concerns MDA-MB-435.
The subject of test [8] is SK-OV-3 ovarian.

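The compound was tested at five concentrations on cells cultured in 96-well plates, with a 48-hour exposure period. The concentration for full growth arrest is given as TGI.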 Bounds are passed on as bounds.

As for `COc1cccc2cc(C(N)=O)c(=N)oc12`, the TGI in test [1] is 45.9 µM; in test [2] it was greater than 100 µM; in test [3], greater than 100 µM; in test [4] it was greater than 100 µM; in test [5], greater than 100 µM; in test [6], greater than 100 µM. Further, the TGI in test [7] and in test [8] was greater than 100 µM in each case.

As for `C1COC(NC(C2CC2)C2CC2)=N1`, the TGI in test [1], in test [2], in test [3], in test [4], in test [5] and in test [6] was greater than 100 µM in each case. For the same molecule, the TGI in test [7] and in test [8] was greater than 100 µM each time.

As to `CC(C)C(C/C=C1/CC(CO)(COC(=O)CC(C(C)C)C(C)C)OC1=O)C(C)C` (configuration not stated), the TGI in test [1] is 23.1 µM; in test [2] it was 18.8 µM; in test [3], 31.6 µM; in test [4], greater than 50.3 µM; in test [5], 28.7 µM; in test [6], 18.5 µM. The TGI in test [7] came to 16.9 µM; in test [8], 30.5 µM.

Regarding `COc1ccc2c3c1OC1C(=O)C=CC4(O)C(C2)NCC[C@@]314` (some centres not stated), the TGI came to 2.81 µM in test [1]; 4.32 µM in test [2]; 20.3 µM in test [3]; 35.8 µM in test [4]; 6.32 µM in test [5]; 9.01 µM in test [6]. Also, the TGI in test [7] is 5.79 µM; in test [8], 11.2 µM.

Consider `Cc1nc2c(o1)C(=O)c1ccccc1/C2=N/c1ccccn1`, for which the TGI was 25 µM in test [1]; 20.9 µM in test [2]; 56.9 µM in test [3]; 97.3 µM in test [4]; 32.2 µM in test [5]; 69.3 µM in test [6]. Moreover, the TGI in test [7] was 31.9 µM; in test [8], greater than 100 µM.

Take `CN1CCC2(CC1)C(=O)N(N1CCCCCC1)C(=O)N2c1ccccc1`: the TGI in test [1], in test [2], in test [3], in test [4], in test [5] and in test [6] was greater than 100 µM throughout. Further, the TGI in test [7] and in test [8] was greater than 100 µM throughout.

`O=C1NC2(CCCCC2)N=C2C(Cl)CCCC12Cl` (configuration not stated): the TGI in test [1], in test [2], in test [3], in test [4], in test [5] and in test [6] was greater than 100 µM each time. Moreover, the TGI in test [7] and in test [8] was greater than 100 µM each time.

Regarding `CC(C)(C)c1ccc(CN2CCN(C(c3ccccc3)c3ccc(Cl)cc3)CC2)cc1` (configuration not stated), the TGI in test [1], in test [2], in test [3], in test [4], in test [5] and in test [6] was greater than 100 µM in each case. Also, the TGI in test [7] and in test [8] was greater than 100 µM each time.

Regarding `CN1C(c2ccccc2)=CC(=O)C(O)=C(c2ccccc2)S1(=O)=O`, the TGI in test [1], in test [2], in test [3], in test [4], in test [5] and in test [6] was greater than 100 µM each time. Moreover, the TGI in test [7] and in test [8] was greater than 100 µM each time.

With `O=C1c2ccccc2-c2nc(-c3cccnc3)cc3c2c1nc1ccccc13`, the TGI in test [1], in test [2], in test [3], in test [4], in test [5] and in test [6] was greater than 100 µM in each case. The TGI in test [7] was 34.7 µM; in test [8], greater than 100 µM.

Regarding `COC(=O)CC1(CNC(=O)OCc2ccccc2)OCCO1`, the TGI in test [1], in test [2], in test [3], in test [4], in test [5] and in test [6] was greater than 100 µM in each case. For the same molecule, the TGI in test [7] and in test [8] was greater than 100 µM in each case.

On to `N#Cc1c(-c2ccccc2)/c(=C\O)c(=O)n2c1nc1ccccc12`, for which the TGI in test [1] was greater than 100 µM; in test [2], 91.9 µM; in test [3], greater than 100 µM; in test [4] it was greater than 100 µM; in test [5], greater than 100 µM; in test [6], greater than 100 µM. Besides, the TGI in test [7] and in test [8] was greater than 100 µM in each case.

On to `O=C(Cn1nc(Br)c(Br)c1Br)c1ccccc1`, for which the TGI was determined as 72.4 µM in test [1]; 63.8 µM in test [2]; 93.1 µM in test [3]; 25.9 µM in test [4]; 80.4 µM in test [5]; 84.5 µM in test [6]. Further, the TGI in test [7] was greater than 100 µM; in test [8], 95.2 µM.

Regarding `COC(=O)NCCc1[nH]nc2c1C(=O)C=C(Nc1ccccc1)C2=O`, the TGI in test [1] was 25.5 µM; in test [2], greater than 100 µM; in test [3] it was 70.3 µM; in test [4] it was 65.2 µM; in test [5], greater than 100 µM; in test [6], 87.7 µM. Moreover, the TGI in test [7] was 31.1 µM; in test [8] it was greater than 100 µM.

For `O=C(/C=C/c1ccc(O)c(O)c1)OCCc1cccc2ccccc12`, the TGI in test [1] amounted to 19.5 µM; in test [2] it was 9.57 µM; in test [3], 29.4 µM; in test [4] it was 5.64 µM; in test [5] it was 21.2 µM; in test [6], 7.56 µM. Further, in test [7], the TGI was found to be 4.65 µM.

As for `Cc1cc(N(CCC#N)CCC#N)ccc1/C(N=Nc1cccc([N+](=O)[O-])c1)=N/NC(=O)c1cc(Cl)ccc1O`, the TGI was greater than 100 µM in test [1]; 82.6 µM in test [2]; greater than 100 µM in test [3]; 45 µM in test [4]; 92.7 µM in test [5]; 53.5 µM in test [6]. Also, the TGI in test [7] and in test [8] was greater than 100 µM in each case.

The record behind these values is PubChem BioAssay (NCI).
